In patent US9309263B2, “Fused multi-cyclic sulfone compounds as inhibitors of beta-secretase and methods of use thereof” (AMGEN INC., priority 2013, dated 2016) one finds IC50 data, which are given here for 18 molecules.

Read-outs that look alike come from different tables or passages of the source.

In assay [1] the target is Beta Secretase enzyme (BACE) (Homo sapiens, UniProt P56817). Kind of assay: In vitro enzymatic BACE FRET assay. The following applies: read-out: BACE1 FRET assay IC50. It is filed as biochemical. Put shortly:
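Enzyme (0.2 nM) pre-incubated 1 h with serially diluted inhibitors in 0.05 M acetate pH 4.2, 10% DMSO, 100 uM genapol. Reaction started with 50 nM fluorophore/quencher peptide FRET substrate, run 1 h, stopped with Tris to neutral pH. Fluorescence read at excitation 488 nm, […].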

For assay [2], the system named is Aβ 40 in conditioned medium of cells stably expressing Amyloid Precursor Protein (APP). Kind of assay: In vitro BACE cell-based assay (Aβ 40 sandwich ELISA). The gist of the method: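 APP-expressing cells, 24 h pre-culture in DMEM/10% FBS, treated 24 h with 10-point compound dilutions from 100 or 10 μM top, 0.1% DMSO final. Secreted Aβ40 quantified by sandwich ELISA (pAb40 capture, biotinylated 6E10 detection, europium TRF); IC50 from percent inhibition versus concentration.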
In general terms: ELISA stands for enzyme-linked immunosorbent assay.

Another assay deals with Cathepsin D (Cat D) (Homo sapiens, UniProt P07339). Kind of assay: In vitro enzymatic Cathepsin D (Cat D) FRET assay. The following applies: read-out: CatD IC50. It is filed as biochemical. The gist of the method: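 Recombinant CHO-expressed enzyme (9 nM) pre-incubated 1 h with serially diluted inhibitor in 0.05 M citrate pH 3.5, 10% DMSO final, 5 mM CHAPS. Reaction started with 20 nM FRET peptide substrate, run 1 h, stopped with Tris to neutral pH; fluorescence read at ex 500/em 580 nm.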
Cathepsin D (Cat D), sequence (P07339 65-412, species assumed): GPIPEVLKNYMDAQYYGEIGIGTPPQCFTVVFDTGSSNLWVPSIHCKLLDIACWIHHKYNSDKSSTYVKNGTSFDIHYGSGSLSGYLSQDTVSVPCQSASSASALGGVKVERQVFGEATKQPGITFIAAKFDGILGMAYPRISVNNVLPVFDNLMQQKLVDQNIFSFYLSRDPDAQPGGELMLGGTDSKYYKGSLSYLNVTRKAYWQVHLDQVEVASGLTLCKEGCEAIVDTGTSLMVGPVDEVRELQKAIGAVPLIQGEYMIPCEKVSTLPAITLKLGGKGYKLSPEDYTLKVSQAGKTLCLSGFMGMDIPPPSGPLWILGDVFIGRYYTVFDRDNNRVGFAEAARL

[3] abbreviates: average IC50, in vitro enzymatic BACE FRET assay.
Where [4] appears, read: Homo sapiens, HEK293, average IC50, HEK cell assay, Aβ 40 readout.
Setting [5] is: Homo sapiens, HEK293, HEK cells, average IC50.

As usually defined, the IC50 is the concentration that gives 50% inhibition.

Beta Secretase enzyme (BACE), sequence (P56817 46-501): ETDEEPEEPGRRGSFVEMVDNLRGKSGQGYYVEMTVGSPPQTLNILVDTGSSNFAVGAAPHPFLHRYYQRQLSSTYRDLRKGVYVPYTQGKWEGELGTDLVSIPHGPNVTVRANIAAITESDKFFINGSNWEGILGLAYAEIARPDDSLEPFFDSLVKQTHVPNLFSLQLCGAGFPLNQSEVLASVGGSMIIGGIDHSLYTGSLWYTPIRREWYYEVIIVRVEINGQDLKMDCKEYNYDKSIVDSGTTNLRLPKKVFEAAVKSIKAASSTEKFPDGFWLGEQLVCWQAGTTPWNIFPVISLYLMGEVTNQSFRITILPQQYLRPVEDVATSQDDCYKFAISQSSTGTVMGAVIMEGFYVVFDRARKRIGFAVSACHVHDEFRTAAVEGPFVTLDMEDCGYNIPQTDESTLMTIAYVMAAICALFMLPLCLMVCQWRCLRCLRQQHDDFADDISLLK

As for `C#CCOc1ccc(C(=O)Nc2ccc3c(c2)[C@@]2(C)N=C(N)C(C)(C)S(=O)(=O)[C@@H]2C[C@H](C)O3)nc1` [Example 145, N-((4aR,6S,11bR)-2-amino-3,3,6,11b-tetramethyl-4,4-dioxido-4a,5,6,11b-tetrahydro-3H-[1]benzoxepino[4,5-b][1,4]thiazin-10-yl)-5-(2-propyn-1-yloxy)-2-pyridinecarboxamide], the results for the IC50 (in assay [1] (setting [3]); in assay [2] (setting [4]); on Cathepsin D (Cat D) (Cathepsin D FRET assay)) were 0.001 µM, 0.002 µM and 329 µM, respectively.

With `C[C@H]1C[C@@H]2[C@](C)(N=C(N)C(C)(C)S2(=O)=O)c2cc(Nc3nccc4nc(OCc5ccn(C)n5)cnc34)ccc2O1` [Example 146, (4aR,6S,11bR)-3,3,6,11b-tetramethyl-N^~10^~-(2-((1-methyl-1H-pyrazol-3-yl)methoxy)pyrido[3,4-b]pyrazin-5-yl)-4a,5,6,11b-tetrahydro-3H-[1]benzoxepino[4,5-b][1,4]thiazine-2,10-diamine 4,4-dioxide], the results for the half-inhibitory concentration (IC50) (in assay [1] (setting [3]); in assay [2] (setting [4]); at Cathepsin D (Cat D) (Cathepsin D FRET assay)) were 0.005 µM, 0.004 µM and 804 µM, respectively.

Turning to `Cc1cc(Cl)cnc1C(=O)Nc1ccc2c(c1)[C@@]1(CF)N=C(N)C(C)(C)S(=O)(=O)[C@H]1CCO2` [Example 147, N-((4aS,11bS)-2-amino-11b-(fluoromethyl)-3,3-dimethyl-4,4-dioxido-4a,5,6,11b-tetrahydro-3H-[1]benzoxepino[4,5-b][1,4]thiazin-10-yl)-5-chloro-3-methyl-2-pyridinecarboxamide], the figures for the IC50 (in assay [1] (setting [3]); in assay [2] (setting [4]); at Cathepsin D (Cat D) (Cathepsin D FRET assay)) were 0.003 µM, 0.009 µM and 1280 µM, respectively.

Turning to `CC1(C)C(N)=N[C@]2(CF)c3cc(Nc4nccc5cc(Cl)cnc45)ccc3OCC[C@H]2S1(=O)=O` [Example 148, (4aR,11bS)-N^~10^~-(3-chloro-1,7-naphthyridin-8-yl)-11b-(fluoromethyl)-3,3-dimethyl-4a,5,6,11b-tetrahydro-3H-[1]benzoxepino[4,5-b][1,4]thiazine-2,10-diamine 4,4-dioxide], the figures for the IC50 (in assay [1] (setting [3]); in assay [2] (setting [4]); on Cathepsin D (Cat D) (Cathepsin D FRET assay)) were 0.012 µM, 0.093 µM and 710 µM, respectively.

As to `Cc1cc(Cl)cnc1C(=O)Nc1ccc2c(c1)[C@@]1(CF)N=C(N)C(C)(C)S(=O)(=O)[C@@H]1CCO2` [Example 149, N-((4aR,11bS)-2-amino-11b-(fluoromethyl)-3,3-dimethyl-4,4-dioxido-4a,5,6,11b-tetrahydro-3H-[1]benzoxepino[4,5-b][1,4]thiazin-10-yl)-5-chloro-3-methyl-2-pyridinecarboxamide], the IC50 in assay [1] (setting [3]) is 0.009 µM; in assay [2] (setting [4]), 0.044 µM; on Cathepsin D (Cat D) (Cathepsin D FRET assay), > 400 µM.

As to `CC(C)Oc1cnc2c(Nc3ccc4c(c3)[C@@]3(CF)N=C(N)C(C)(C)S(=O)(=O)[C@@H]3CCO4)nccc2n1` [Example 150, (4aR,11bS)-11b-(fluoromethyl)-3,3-dimethyl-N^~10^~-(2-(1-methylethoxy)pyrido[3,4-b]pyrazin-5-yl)-4a,5,6,11b-tetrahydro-3H-[1]benzoxepino[4,5-b][1,4]thiazine-2,10-diamine 4,4-dioxide], the half-maximal inhibitory concentration (IC50) in assay [1] (setting [3]) is 0.227 µM; in assay [2] (setting [4]), 1.4 µM; at Cathepsin D (Cat D) (Cathepsin D FRET assay), > 400 µM.

As to `COc1cnc2c(Nc3ccc4c(c3)[C@@]3(CF)N=C(N)C(C)(C)S(=O)(=O)[C@@H]3CCO4)nccc2n1` [Example 151, (4aR,11bS)-11b-(fluoromethyl)-N^~10^~-(2-methoxypyrido[3,4-b]pyrazin-5-yl)-3,3-dimethyl-4a,5,6,11b-tetrahydro-3H-[1]benzoxepino[4,5-b][1,4]thiazine-2,10-diamine 4,4-dioxide], the concentration for half-maximal inhibition (IC50) is 0.037 µM in assay [1] (setting [3]), 0.068 µM in assay [2] (setting [4]) and > 400 µM on Cathepsin D (Cat D) (Cathepsin D FRET assay).

`COc1cnc(C(=O)Nc2ccc3c(c2)[C@@]2(CF)N=C(N)C(C)(C)S(=O)(=O)[C@@H]2CCO3)c(C)c1` [Example 152, N-((4aR,11bS)-2-amino-11b-(fluoromethyl)-3,3-dimethyl-4,4-dioxido-4a,5,6,11b-tetrahydro-3H-[1]benzoxepino[4,5-b][1,4]thiazin-10-yl)-5-methoxy-3-methyl-2-pyridinecarboxamide]: the IC50 is 0.031 µM in assay [1] (setting [3]), 0.075 µM in assay [2] (setting [4]) and > 400 µM at Cathepsin D (Cat D) (Cathepsin D FRET assay).

With `Cc1cc(C#N)cnc1C(=O)Nc1ccc2c(c1)[C@@]1(CF)N=C(N)C(C)(C)S(=O)(=O)[C@H]1CCO2` [Example 153, N-((4aS,11bS)-2-amino-11b-(fluoromethyl)-3,3-dimethyl-4,4-dioxido-4a,5,6,11b-tetrahydro-3H-[1]benzoxepino[4,5-b][1,4]thiazin-10-yl)-5-cyano-3-methyl-2-pyridinecarboxamide], the half-maximal inhibitory concentration (IC50) stood at 0.002 µM in assay [1] (setting [3]), 0.006 µM in assay [2] (setting [4]) and 2070 µM at Cathepsin D (Cat D) (Cathepsin D FRET assay).

For the molecule `CC1(C)C(N)=N[C@]2(CF)c3cc(Nc4nccc5cc(Cl)cnc45)ccc3OCC[C@@H]2S1(=O)=O` [Example 154, (4aS,11bS)-N1^~10^~-(3-chloro-1,7-naphthyridin-8-yl)-11b-(fluoromethyl)-3,3-dimethyl-4a,5,6,11b-tetrahydro-3H-[1]benzoxepino[4,5-b][1,4]thiazine-2,10-diamine 4,4-dioxide], the half-inhibitory concentration (IC50) in assay [1] (setting [3]) was found to be 0.003 µM; in assay [2] (average IC50, HEK cell assay, Aβ 40 readout) it was 0.032 µM; at Cathepsin D (Cat D) (Cathepsin D FRET assay) it was 462 µM.

Take `COc1cnc2c(Nc3ccc4c(c3)[C@@]3(CF)N=C(N)C(C)(C)S(=O)(=O)[C@H]3CCO4)nccc2n1` [Example 155, (4aS,11bS)-11b-(fluoromethyl)-N^~10^~-(2-methoxypyrido[3,4-b]pyrazin-5-yl)-3,3-dimethyl-4a,5,6,11b-tetrahydro-3H-[1]benzoxepino[4,5-b][1,4]thiazine-2,10-diamine 4,4-dioxide]: the 50% inhibitory concentration (IC50) in assay [1] (setting [3]) is 0.014 µM; in assay [2] (setting [4]) it was 0.062 µM; at Cathepsin D (Cat D) (Cathepsin D FRET assay), > 400 µM.

As for `COc1cnc2c(Nc3ccc4c(c3)[C@@]3(C)N=C(N)C(C)(C)S(=O)(=O)[C@@H]3CCO4)nccc2n1` [Example 156, (4aR,11bR)-N^~10^~-(2-methoxypyrido[3,4-b]pyrazin-5-yl)-3,3,11b-trimethyl-4a,5,6,11b-tetrahydro-3H-[1]benzoxepino[4,5-b][1,4]thiazine-2,10-diamine 4,4-dioxide], the values for the IC50 (in assay [1] (setting [3]); in assay [2] (setting [4]); at Cathepsin D (Cat D) (Cathepsin D FRET assay)) were 0.011 µM, 0.014 µM and 1030 µM, respectively.

On to `Cc1cc(OC(F)F)cnc1C(=O)Nc1ccc2c(c1)[C@@]1(C)N=C(N)C(C)(C)S(=O)(=O)[C@@H]1CCO2` [Example 157, N-((4aR,11bR)-2-amino-3,3,11b-trimethyl-4,4-dioxido-4a,5,6,11b-tetrahydro-3H-[1]benzoxepino[4,5-b][1,4]thiazin-10-yl)-5-(difluoromethoxy)-3-methyl-2-pyridinecarboxamide], for which the results for the half-maximal inhibitory concentration (IC50) (in assay [1] (setting [3]); in assay [2] (setting [4]); on Cathepsin D (Cat D) (Cathepsin D FRET assay)) were 0.002 µM, 0.003 µM and 1200 µM, respectively.

For the molecule `COc1cnc(C(=O)Nc2ccc3c(c2)[C@@]2(C)N=C(N)C(C)(C)S(=O)(=O)[C@@H]2CCO3)c(C)c1` [Example 158, N-((4aR,11bR)-2-amino-3,3,11b-trimethyl-4,4-dioxido-4a,5,6,11b-tetrahydro-3H-[1]benzoxepino[4,5-b][1,4]thiazin-10-yl)-5-methoxy-3-methyl-2-pyridinecarboxamide], the IC50 is 0.021 µM in assay [1] (setting [3]), 0.007 µM in assay [2] (setting [4]) and > 400 µM at Cathepsin D (Cat D) (Cathepsin D FRET assay).

As for `COc1cnc2c(Nc3ccc4c(c3)[C@@]3(C)N=C(N)C(C)(C)S(=O)(=O)[C@H]3CCO4)nccc2n1` [Example 159, (4aS,11bR)-N^~10^~-(2-methoxypyrido[3,4-b]pyrazin-5-yl)-3,3,11b-trimethyl-4a,5,6,11b-tetrahydro-3H-[1]benzoxepino[4,5-b][1,4]thiazine-2,10-diamine 4,4-dioxide], the IC50 in assay [1] (setting [3]) was 0.075 µM; in assay [2] (setting [4]), 0.052 µM; at Cathepsin D (Cat D) (Cathepsin D FRET assay), > 400 µM.

In the case of `Cc1cc(OC(F)F)cnc1C(=O)Nc1ccc2c(c1)[C@@]1(C)N=C(N)C(C)(C)S(=O)(=O)[C@H]1CCO2` [Example 160, N-((4aS,11bR)-2-amino-3,3,11b-trimethyl-4,4-dioxido-4a,5,6,11b-tetrahydro-3H-[1]benzoxepino[4,5-b][1,4]thiazin-10-yl)-5-(difluoromethoxy)-3-methyl-2-pyridinecarboxamide], the IC50 amounted to 0.01 µM in assay [1] (average IC50), 0.003 µM in assay [2] (setting [5]) and 1170 µM at Cathepsin D (Cat D).

In the case of `COc1cnc(C(=O)Nc2ccc3c(c2)[C@@]2(C)N=C(N)C(C)(C)S(=O)(=O)[C@H]2CCO3)c(C)c1` [Example 161, N-((4aS,11bR)-2-amino-3,3,11b-trimethyl-4,4-dioxido-4a,5,6,11b-tetrahydro-3H-[1]benzoxepino[4,5-b][1,4]thiazin-10-yl)-5-methoxy-3-methyl-2-pyridinecarboxamide], the IC50 came to 0.032 µM in assay [1] (average IC50), 0.008 µM in assay [2] (setting [5]) and 878 µM on Cathepsin D (Cat D).

Turning to `COc1cnc2c(Nc3ccc4c(c3)[C@@]3(C)N=C(N)C(C)(C)S(=O)(=O)[C@@H]3CCO4)ncnc2c1` [Example 162, (4aR,11bR)-N^~10^~-(7-methoxypyrido[3,2-d]pyrimidin-4-yl)-3,3,11b-trimethyl-4a,5,6,11b-tetrahydro-3H-[1]benzoxepino[4,5-b][1,4]thiazine-2,10-diamine 4,4-dioxide], the IC50 in assay [1] (average IC50) was determined as 0.007 µM; in assay [2] (setting [5]) it was 0.009 µM; on Cathepsin D (Cat D), 619 µM.
